Consider seven compounds from US6056966A, “Method and compositions for treating impotence” (Baker Norton Pharmaceuticals, Inc., priority 1998, dated 2000).

The subject of data set [1] is guinea pig penis. Briefly: Topical application of nitrates to the penis of guinea pigs (change in penile volume). As to conditions: for AUC / AUC, % of 1,5-PDN / Peak Effect (% change) / Peak Effect, % of 1,5-PDN / Time of Peak Effect: guinea pig, in vivo. The data set is classed as in vivo, male outbred Hartley guinea pigs. The text has this:
Sixteen (16) male outbred Hartley guinea pigs were weighed and placed into treatment groups as follows:
The animals were placed in dorsal recumbency and held in place by restraints. The penis was extruded from the prepuce. Care was taken to not manipulate the penis. Length and diameter measurements were made using digital calipers. The length measurement was taken from the prepuce to the tip of the glans when the penis was extended. The diameter was taken 0.5 cm proximally from the tip of the glans.
The appropriate amount of test material was applied with a Wiretrol™ pipette to the base of the exposed penis. When application was complete, a timer was started. Measurements were taken at 0, 1, 2, 5, 10 and 15 minutes after application or until detumescence was observed.
The same procedure was followed to topically apply a series of various other nitrate and dinitrate compounds (in neat form) to the penis of guinea pigs. A summary of the activity of this series of nitrate compounds is shown in Table 2, with the AUC and peak effect values for each compound compared to 1,5-PDN.
The same test procedure was followed as in Example 3, but applying a 10% solution of NTG to the penis in varying dosage amounts.
Twelve (12) male Hartley guinea pigs were placed into treatment groups as follows: […]

For data set [2], the system named is corpus cavernosum. Briefly: Intracavernosal injection in anesthetized rats (cavernosal and arterial blood pressure).
Data set [3] has as its system rat aortic rings. As to the kind of experiment: Vascular reactivity: relaxation of rat aortic rings precontracted with phenylephrine. As to conditions: FIG. 11, rat aortic strips. Type of data set: cell-based, Sprague-Dawley rats. The text has this:
Aortic rings (2-3 mm wide) from Sprague-Dawley rats were isolated and placed in a tissue bath. The vessels were precontracted with small amounts of phenylephrine. A transducer connected to a recorder was used to assess changes in tension. As noted in FIG. 10, there was no difference in vascular relaxation, either in potency or efficacy, between 1,5-PDN and 1,5-pentane dinitrite.

The subject of data set [4] is penile smooth muscle. To be noted: cited from earlier work.
Data set [5] can be described thus: Intravenous injection of NTG vs. 1,5-pentane dinitrate in conscious rats (mean arterial blood pressure). The data set is classed as in vivo, rat. To be noted: 30 μg. As to the method:
Rats (n=3) with indwelling catheters in the femoral artery for blood pressure measurements and vein for drug administration were given 1 dose of NTG (30 μg) and 6 doses of 1,5-PDN (30 μg-2000 μg) or vehicle (ethanol) in the conscious state. Changes in mean arterial blood pressure (diastolic blood pressure+1/3 (systolic-diastolic blood pressure)) were assessed after each dose of nitrate was given. About 0.5 hr to 1 hr separated the administration of each drug and dose.

Data set [6] has as its system penis. As to conditions: cited from earlier work.

The structures appear in SMILES notation. Entries after “also recorded” stand apart in the source; their conditions may differ.

Take `CC(C)=CCO[N+](=O)[O-]` [2-Methyl-2-butene-4-nitrate]: in data set [1], the AUC was 305; the “AUC, % of 1,5-PDN” value amounted to 69%; the “Peak Effect (% change)” value is 32.6 % change; the “Peak Effect, % of 1,5-PDN” value is listed as 84%. Further, in data set [1], the “Time of Peak Effect” value was 5 min.

With `O=[N+]([O-])OC1CCCC1` [Cyclopentyl nitrate], in data set [1], the AUC amounted to 380; the “AUC, % of 1,5-PDN” value is 86%; the “Peak Effect (% change)” value amounted to 31.8 % change; the “Time of Peak Effect” value came to 10 min.

With `CC(C)CO[N+](=O)[O-]` [Isobutyl nitrate], in data set [1], the AUC is 367, the “Peak Effect (% change)” value is on record as 38.1 % change and the “Time of Peak Effect” value was 2 min.

Consider `O=[N+]([O-])OCC(CO[N+](=O)[O-])O[N+](=O)[O-]` [NTG, nitroglycerin], for which, in data set [2] (anesthetized rats, FIGS. 6-8), the “change in intracavernosal pressure” value was “relatively small, dose-dependent increases in intracavernosal pressure” and the “effect on systemic arterial blood pressure” value is “almost equivalent systemic ("downstream") reductions in arterial blood pressure”. In addition, the “systemic reduction in arterial blood pressure” value in data set [2] (at the highest dose used) is on record as “over 30 mmHg”. In addition, the “vascular relaxation: NTG vs 1,5-PDN” value in data set [3] was “no appreciable difference in the vascular relaxation”. In addition, in data set [4] (in vivo), the “headache, systemic blood pressure” value was “headaches were a common occurrence; also recorded: decrease in systemic blood pressure and development of headache”; the “relaxation of penile smooth muscle and vascular tissue” value is “causes relaxation of penile smooth muscle and vascular tissue, including cavernosal tissue”. Besides, the “response compared with papaverine or placebo” value in data set [4] (only one trial) is listed as “better than papaverine, another vasodilator, or placebo”. For the same compound, in data set [1] (topical, FIGS. 1-3, 1,5-PDN vs saline, 10% NTG solution vs 1,5-PDN), the “effect on penile volume” value is listed as “minimal effect on penis volume as compared to 1,5-PDN”. The “decrease in arterial pressure” value in data set [5] is on record as around 25%. For the same compound, the “patients with erections sufficient for vaginal penetration” value in data set [6] (at home) is 30 % of patients. In addition, in data set [6] (in vivo), the “patients with some response” value is reported as 71 % of patients.

Regarding `CCCC(C)O[N+](=O)[O-]` (centres unmarked) [2-Pentane nitrate], in data set [1], the AUC is 323; the “AUC, % of 1,5-PDN” value is given as 73%; the “Peak Effect (% change)” value is listed as 36.0 % change; the “Peak Effect, % of 1,5-PDN” value was determined as 93%. In addition, the “Time of Peak Effect” value in data set [1] was found to be 5 min.

As for `CC(C)CCO[N+](=O)[O-]` [Isoamyl nitrate], in data set [1], the AUC came out at 309; the “AUC, % of 1,5-PDN” value was found to be 70%; the “Peak Effect (% change)” value came to 40.3 % change; the “Peak Effect, % of 1,5-PDN” value was 104%. Further, the “Time of Peak Effect” value in data set [1] was 2 min.

Turning to `C=CCCCO[N+](=O)[O-]` [1-Pentene-5-nitrate], in data set [1], the AUC turned out to be 309; the “AUC, % of 1,5-PDN” value amounted to 70%; the “Peak Effect (% change)” value turned out to be 35.4 % change; the “Peak Effect, % of 1,5-PDN” value is given as 91%. Also, the “Time of Peak Effect” value in data set [1] turned out to be 2 min.
